Several values for one entry are separate records, joined by “and”; a condition that tells them apart may be missing. Equal entries are not always repeated. Where two headings read alike, the source gives them in different places.
Experiments:
HepG2 = conditions: human, hepg2 cells, 48 h
in vitro [1] = conditions: human, hepg2 cells
[2] = tested on: Plasmodium falciparum Dd2 asexual blood stage parasites; experiment: microbe, parasite or virus in culture; parameters: species or system Plasmodium falciparum Dd2 in human erythrocytes; single determination (one 11-point concentration-response curve); conditions: Plasmodium falciparum, DD2, Erythrocyte, 72 h; read-out: AC50
[3] = tested on: P. berghei-ANKA-GFP-LucCON liver stage parasites in HepG2-A16-CD81EGFP cells; experiment: P. berghei liver stage Pb-Luc assay, Method 1 (UCSD, 1536-well); type: cell-based, Plasmodium berghei; conditions: for activity at 1 µM / activity at 3 µM: Plasmodium berghei, 48 h, average of 2 wells on a 1536 well plate
HepG2-A16-CD81EGFP cells = conditions: for HepG2 1uM growth rep1 / HepG2 1uM growth rep2: HepG2, 1 µM compound treatment (10 mM stocks); for HepG2 1uM growth rep1 / HepG2 3uM growth rep1: replicate 1, normalized; for HepG2 1uM growth rep1 / HepG2 1uM growth rep2 / HepG2 3uM growth rep1 / HepG2 3uM growth rep2: average of 2 wells; for HepG2 1uM growth rep2 / HepG2 3uM growth rep2: replicate 2, normalized; for HepG2 3uM growth rep1 / HepG2 3uM growth rep2: HepG2, 3 µM compound treatment (10 mM stocks)
in vitro [4] = conditions: human, HepG2-A16-CD81EGFP cells, uninfected
[5] = P. berghei liver stage, 1 µM compound treatment (10 mM stocks), replicate 1, normalized, read-out: PbLuc 1uM growth rep1
[6] = P. berghei liver stage, 1 µM compound treatment (10 mM stocks), replicate 2, normalized, read-out: PbLuc 1uM growth rep2
[7] = P. berghei liver stage, 3 µM compound treatment (10 mM stocks), replicate 1, normalized, read-out: PbLuc 3uM growth rep1
[8] = P. berghei liver stage, 3 µM compound treatment (10 mM stocks), replicate 2, normalized, read-out: PbLuc 3uM growth rep2
[9] = 1 uM (compounds provided at 10 mM), column 11, read-out: Pb-Luc (P. berghei liver stage), % of control, lower concentration, first repeat
[10] = 1 uM (compounds provided at 10 mM), column 12, read-out: Pb-Luc (P. berghei liver stage), % of control, lower concentration, second repeat
[11] = 3 uM (compounds provided at 10 mM), column 8, read-out: Pb-Luc (P. berghei liver stage), % of control, higher concentration, first repeat
[12] = 3 uM (compounds provided at 10 mM), column 9, read-out: Pb-Luc (P. berghei liver stage), % of control, higher concentration, second repeat

Row | SMILES | Log AC50 (M) (HepG2) | CC50 at 48 h (in vitro [1]) [µM] | AC50 [2] [µM] | activity at 1 µM [3, 5] [%] | activity at 1 µM [3, 6] [%] | activity at 3 µM [3, 7] [%] | activity at 3 µM [3, 8] [%] | HepG2 1uM growth rep1 (HepG2-A16-CD81EGFP cells) [%] | HepG2 1uM growth rep2 (HepG2-A16-CD81EGFP cells) [%] | HepG2 3uM growth rep1 (HepG2-A16-CD81EGFP cells) [%] | HepG2 3uM growth rep2 (HepG2-A16-CD81EGFP cells) [%] | viability at 48 h, 1 µM (in vitro [4]) [%] | viability at 48 h, 3 µM (in vitro [4]) [%] | activity at 1 µM [3, 9] [%] | activity at 1 µM [3, 10] [%] | activity at 3 µM [3, 11] [%] | activity at 3 µM [3, 12] [%] | HepG2 viability, % of control (HepG2-A16-CD81EGFP cells) | viability at 48 h (in vitro [4]) [%] | Max Resp (signal direction of the dose response) ([3]; Method 1, Decrease = decreasing P. berghei viability with dose, Increase = increasing signal, Inactive = no dose response)
1 | N#Cc1ccc(NC(=O)Nc2ccc(Cl)cc2)cc1 [MLS000104525-01] | -4.4643 | 34.3 | 5.31 | 86 | 61 | 6.45 | 7 | 95 | 87 | 72 | 84 | – | – | – | – | – | – | – | – | –
2 | COc1ccccc1CNCC(O)Cn1c2ccccc2c2ccccc21 (stereo not shown) [MLS000391556-01] | -4.4643 | 34.3 | – | 115 | 98 | 107 | 96 | 97 | 92 | 92 | 93 | – | – | – | – | – | – | – | – | –
3 | NS(=O)(=O)c1ccc(N/N=C/c2cn(-c3ccccc3)nc2-c2cccs2)cc1 [MLS000393371-01] | -4.6643 | 21.7 | 0.335 | 80 | 57 | 26 | 21 | 92 | 91 | 94 | 94 | – | – | – | – | – | – | – | – | –
4 | Cc1cccc(-c2cc3nc(C)c(C)c(NCCCn4ccnc4)n3n2)c1 [MLS000529525-01] | -4.3143 | 48.5 | 5.31 | 138 | 123 | 94 | 144 | 101 | 92 | 82 | 93 | – | – | – | – | – | – | – | – | –
5 | Cc1cccc(NC2=C/C(=N\S(=O)(=O)c3cccs3)c3ccccc3C2=O)c1 [MLS000585840-01] | -4.4643 | 34.3 | 0.168 | – | – | – | – | – | – | – | – | 113 | 95 | 90 | 90 | 37 | 41 | – | – | –
6 | Br.CCOC(=O)c1c(CSC(=N)N)n(-c2ccc(Br)cc2)c2cc(Br)c(OC(C)=O)cc12 [MLS000595146-01] | -4.3143 | 48.5 | – | – | – | – | – | – | – | – | – | 105 | 104 | – | – | – | – | 100% and 96% | – | –
7 | Cc1cc(Cl)c(S(=O)(=O)N2CCN(c3ccccn3)CC2)cc1OCC(=O)NC1CCCCC1 [MLS000693481-01] | -4.5643 | 27.3 | 0.668 | – | – | – | – | – | – | – | – | 91 | 105 | 102 | 96 | 68 | 80 | – | – | –
8 | CC1(C)Cc2ccccc2C2=NNC(=O)C2=N1 [MLS000709658-01] | -4.4643 | 34.3 | 3.35 | 117 | 83 | 68 | 64 | 98 | 96 | 90 | 99 | – | – | – | – | – | – | – | – | –
9 | O=C1NC(=S)S/C1=C\C=C\c1ccc([N+](=O)[O-])o1 [MLS000722913-01] | -4.8643 | 13.7 | 5.31 | – | – | – | – | – | – | – | – | 112 | 101 | 80 | 77 | 57 | 67 | – | – | –
10 | COc1ccc2nc3cc(Cl)ccc3c(Nc3cc(C(C)C)c(O)cc3C)c2c1 [MLS000737404-01] | -4.3643 | 43.2 | 0.266 | – | – | – | – | – | – | – | – | 112 | 95 | 113 | 97 | 61 | 53 | – | – | –
11 | Cc1cc(N)c2cc(NC(=O)/C=C/c3ccccc3Cl)ccc2n1 [MLS000737665-01] | -4.3643 | 43.2 | 1.88 | – | – | – | – | – | – | – | – | 105 | 108 | 86 | 67 | 21 | 37 | – | – | –
12 | CC(C)CN(Cc1cc(=O)oc2cc(-c3ccccc3)c(O)cc12)CC(C)C [MLS000779012-01] | -4.3643 | 43.2 | – | – | – | – | – | – | – | – | – | 98 | 101 | 87 | 88 | 59 | 60 | – | – | –
13 | N=c1c2c(n(Cc3ccc(F)cc3)c3c1CCC3)CCCC2 [MLS000856097-01] | -4.7643 | 17.2 | 2.99 | – | – | – | – | – | – | – | – | 105 | 81 | 60 | 59 | 19 | 15 | – | – | –
14 | ClC(Cl)(Cl)c1nc2ccccc2n2nncc12 [MLS001171504-01] | -4.3643 | 43.2 | 2.11 | – | – | – | – | – | – | – | – | 106 | 95 | 113 | 83 | 87 | 102 | – | – | –
15 | C/C(=N\Nc1ncnc2sc(C)c(C)c12)c1ccccn1 [MLS001176565-01] | -6.3143 | 0.485 | 1.33 | 11 | 8 | 6 | 5 | 55 | 50 | 36 | 44 | – | – | – | – | – | – | – | – | –
16 | CCOc1cccc(CNCCc2c(C)[nH]c3ccc(OC(F)(F)F)cc23)c1O.O=C(O)C(=O)O [MLS001198351-01] | -4.4643 | 34.3 | 2.37 | 46 | 47 | 9 | 16 | 97 | 92 | 70 | 71 | – | – | – | – | – | – | – | – | –
17 | CC(Sc1nc2ccccc2c(=O)n1C)C(=O)Nc1ccc2c(c1)OCCO2 (stereo not shown) [MLS002161477-01] | -4.3643 | 43.2 | – | – | – | – | – | – | – | – | – | 84 | – | – | – | – | – | – | 84 | Inactive
